Assay: xn = mol fraction of the nth substance listed
Conditions: Liquid

CC(C)(C)O [2-methylpropan-2-ol] + O
mass density [kg/m3]
Conditions | 298.15 K | 308.15 K | 323.15 K
101.3 kPa, Vibrating tube method, x1 = 0.0248 | – | 978.65 | 971.52
101.3 kPa, Vibrating tube method, x1 = 0.04241 | – | 969.43 | 960.77
101.3 kPa, Vibrating tube method, x1 = 0.05887 | – | 959.67 | 949.57
101.3 kPa, Vibrating tube method, x1 = 0.08929 | – | 941.57 | 930.6
101.3 kPa, Vibrating tube method, x1 = 0.1125 | – | 928.56 | 916.92
101.3 kPa, Vibrating tube method, x1 = 0.1566 | – | 906.33 | 893.97
101.3 kPa, Vibrating tube method, x1 = 0.208 | – | 886.22 | 873.34
101.3 kPa, Vibrating tube method, x1 = 0.3023 | – | 856.97 | 843.45
101.3 kPa, Vibrating tube method, x1 = 0.4045 | – | 834.17 | 820.18
101.3 kPa, Vibrating tube method, x1 = 0.4827 | – | 820.93 | 806.67
101.3 kPa, Vibrating tube method, x1 = 0.5344 | – | 812.83 | 798.37
101.3 kPa, Vibrating tube method, x1 = 0.6029 | – | 803.86 | 789.18
101.3 kPa, Vibrating tube method, x1 = 0.726 | – | 790.54 | 775.51
101.3 kPa, Vibrating tube method, x1 = 0.7999 | – | 784.37 | 768.91
101.3 kPa, Vibrating tube method, x1 = 0.8711 | – | 778.45 | 763
101.3 kPa, Vibrating tube method, x1 = 0.9183 | – | 775.09 | 759.52
101.3 kPa, Vibrating tube method, x1 = 0.9574 | – | 772.63 | 756.76
101.3 kPa, Vibrating tube method, x1 = 1 | – | 770.14 | 753.94
10000 kPa, Constant-volume piezometry, x1 = 0.0248 | – | 982.6 | 975.58
10000 kPa, Constant-volume piezometry, x1 = 0.04241 | – | 973.49 | 965.03
10000 kPa, Constant-volume piezometry, x1 = 0.05887 | – | 963.89 | 954.03
10000 kPa, Constant-volume piezometry, x1 = 0.08929 | – | 946.1 | 935.46
10000 kPa, Constant-volume piezometry, x1 = 0.1125 | – | 933.31 | 922.12
10000 kPa, Constant-volume piezometry, x1 = 0.1566 | – | 911.53 | 899.59
10000 kPa, Constant-volume piezometry, x1 = 0.208 | – | 891.88 | 879.35
10000 kPa, Constant-volume piezometry, x1 = 0.3023 | – | 863.34 | 850.13
10000 kPa, Constant-volume piezometry, x1 = 0.4045 | – | 841.23 | 827.69
10000 kPa, Constant-volume piezometry, x1 = 0.4827 | – | 828.5 | 814.74
10000 kPa, Constant-volume piezometry, x1 = 0.5344 | – | 820.71 | 806.74
10000 kPa, Constant-volume piezometry, x1 = 0.6029 | – | 812.19 | 797.93
10000 kPa, Constant-volume piezometry, x1 = 0.726 | – | 799.44 | 784.92
10000 kPa, Constant-volume piezometry, x1 = 0.7999 | – | – | 778.73
10000 kPa, Constant-volume piezometry, x1 = 0.8711 | – | – | 773.1
10000 kPa, Constant-volume piezometry, x1 = 0.9183 | – | – | 769.84
10000 kPa, Constant-volume piezometry, x1 = 0.9574 | – | – | 767.23
10000 kPa, Constant-volume piezometry, x1 = 1 | – | – | 764.58
25000 kPa, Constant-volume piezometry, x1 = 0.0248 | – | 988.54 | 981.52
25000 kPa, Constant-volume piezometry, x1 = 0.04241 | – | 979.65 | 971.36
25000 kPa, Constant-volume piezometry, x1 = 0.05887 | – | 970.24 | 960.64
25000 kPa, Constant-volume piezometry, x1 = 0.08929 | – | 952.8 | 942.55
25000 kPa, Constant-volume piezometry, x1 = 0.1125 | – | 940.3 | 929.62
25000 kPa, Constant-volume piezometry, x1 = 0.1566 | – | 919.1 | 907.6
25000 kPa, Constant-volume piezometry, x1 = 0.208 | – | 900.03 | 887.94
25000 kPa, Constant-volume piezometry, x1 = 0.3023 | – | 872.28 | 859.69
25000 kPa, Constant-volume piezometry, x1 = 0.4045 | – | 850.99 | 838.16
25000 kPa, Constant-volume piezometry, x1 = 0.4827 | – | 838.84 | 825.82
25000 kPa, Constant-volume piezometry, x1 = 0.5344 | – | 831.4 | 818.13
25000 kPa, Constant-volume piezometry, x1 = 0.6029 | – | 823.36 | 809.81
25000 kPa, Constant-volume piezometry, x1 = 0.726 | – | 811.34 | 797.59
25000 kPa, Constant-volume piezometry, x1 = 0.7999 | – | – | 791.84
25000 kPa, Constant-volume piezometry, x1 = 0.8711 | – | – | 786.62
25000 kPa, Constant-volume piezometry, x1 = 0.9183 | – | – | 783.6
25000 kPa, Constant-volume piezometry, x1 = 0.9574 | – | – | 781.19
25000 kPa, Constant-volume piezometry, x1 = 1 | – | – | 778.73
50000 kPa, Constant-volume piezometry, x1 = 0.0248 | – | 998.04 | 991.13
50000 kPa, Constant-volume piezometry, x1 = 0.04241 | – | 989.37 | 981.39
50000 kPa, Constant-volume piezometry, x1 = 0.05887 | – | 980.26 | 971.01
50000 kPa, Constant-volume piezometry, x1 = 0.08929 | – | 963.39 | 953.61
50000 kPa, Constant-volume piezometry, x1 = 0.1125 | – | 951.52 | 941.17
50000 kPa, Constant-volume piezometry, x1 = 0.1566 | – | 931.05 | 920.03
50000 kPa, Constant-volume piezometry, x1 = 0.208 | – | 912.67 | 901.32
50000 kPa, Constant-volume piezometry, x1 = 0.3023 | – | 885.81 | 874.39
50000 kPa, Constant-volume piezometry, x1 = 0.4045 | – | 865.39 | 853.64
50000 kPa, Constant-volume piezometry, x1 = 0.4827 | – | 853.93 | 841.81
50000 kPa, Constant-volume piezometry, x1 = 0.5344 | – | 846.76 | 834.43
50000 kPa, Constant-volume piezometry, x1 = 0.6029 | – | 839.04 | 826.63
50000 kPa, Constant-volume piezometry, x1 = 0.726 | – | 827.94 | 815.19
50000 kPa, Constant-volume piezometry, x1 = 0.7999 | – | – | 809.91
50000 kPa, Constant-volume piezometry, x1 = 0.8711 | – | – | 805.23
50000 kPa, Constant-volume piezometry, x1 = 0.9183 | – | – | 802.47
50000 kPa, Constant-volume piezometry, x1 = 0.9574 | – | – | 800.32
50000 kPa, Constant-volume piezometry, x1 = 1 | – | – | 798.2
75000 kPa, Constant-volume piezometry, x1 = 0.0248 | – | 1006.97 | 1000.34
75000 kPa, Constant-volume piezometry, x1 = 0.04241 | – | 998.3 | 990.63
75000 kPa, Constant-volume piezometry, x1 = 0.05887 | – | 989.51 | 980.49
75000 kPa, Constant-volume piezometry, x1 = 0.08929 | – | 973.24 | 963.7
75000 kPa, Constant-volume piezometry, x1 = 0.1125 | – | 961.84 | 951.62
75000 kPa, Constant-volume piezometry, x1 = 0.1566 | – | 941.93 | 931.22
75000 kPa, Constant-volume piezometry, x1 = 0.208 | – | 924 | 913.19
75000 kPa, Constant-volume piezometry, x1 = 0.3023 | – | 897.73 | 887.1
75000 kPa, Constant-volume piezometry, x1 = 0.4045 | – | 877.69 | 866.87
75000 kPa, Constant-volume piezometry, x1 = 0.4827 | – | 866.59 | 855.33
75000 kPa, Constant-volume piezometry, x1 = 0.5344 | – | 859.52 | 848.15
75000 kPa, Constant-volume piezometry, x1 = 0.6029 | – | 851.9 | 840.58
75000 kPa, Constant-volume piezometry, x1 = 0.726 | – | 841.27 | 829.57
75000 kPa, Constant-volume piezometry, x1 = 0.7999 | – | – | 824.52
75000 kPa, Constant-volume piezometry, x1 = 0.8711 | – | – | 820.17
75000 kPa, Constant-volume piezometry, x1 = 0.9183 | – | – | 817.6
75000 kPa, Constant-volume piezometry, x1 = 0.9574 | – | – | 815.64
75000 kPa, Constant-volume piezometry, x1 = 1 | – | – | 813.79
100000 kPa, Constant-volume piezometry, x1 = 0.0248 | – | 1015.14 | 1009.12
100000 kPa, Constant-volume piezometry, x1 = 0.04241 | 1010.64 | 1006.32 | 998.9
100000 kPa, Constant-volume piezometry, x1 = 0.05887 | 1003.04 | 997.93 | 989.01
100000 kPa, Constant-volume piezometry, x1 = 0.08929 | 988.13 | 982.34 | 972.81
100000 kPa, Constant-volume piezometry, x1 = 0.1125 | 976.75 | 970.82 | 961.04
100000 kPa, Constant-volume piezometry, x1 = 0.1566 | 957.51 | 951.42 | 941.06
100000 kPa, Constant-volume piezometry, x1 = 0.208 | 940.04 | 933.91 | 923.15
100000 kPa, Constant-volume piezometry, x1 = 0.3023 | 915 | 908.14 | 897.26
100000 kPa, Constant-volume piezometry, x1 = 0.4045 | 895.56 | 888.2 | 878.13
100000 kPa, Constant-volume piezometry, x1 = 0.4827 | 884.31 | 877.25 | 867.33
100000 kPa, Constant-volume piezometry, x1 = 0.5344 | 877.51 | 870.36 | 860.41
100000 kPa, Constant-volume piezometry, x1 = 0.6029 | 869.84 | 863.06 | 852.9
100000 kPa, Constant-volume piezometry, x1 = 0.726 | – | 852.47 | 842.31
100000 kPa, Constant-volume piezometry, x1 = 0.7999 | – | – | 837.55
100000 kPa, Constant-volume piezometry, x1 = 0.8711 | – | – | 833.28
100000 kPa, Constant-volume piezometry, x1 = 0.9183 | – | – | 830.96
100000 kPa, Constant-volume piezometry, x1 = 0.9574 | – | – | 829.12
100000 kPa, Constant-volume piezometry, x1 = 1 | – | – | 827.34

Reference: the NIST ThermoML archive (doi:10.1016/j.jct.2012.09.026)
